Assay results: patent publication US11415579B2, “Assay for measuring a rate of reaction between a target and a ligand candidate” (Imperial College Innovations Ltd., priority 2016, dated 2022)

Experiments:
[1] = Kinetic thiol consumption assay with model thiol glutathione; format: physicochemical; design: Rate constant with glutathione (k(GSH)): unit not given here; conditions: for Rate constant with glutathione (k(GSH)): 500 μM ligand, 5 μM thiol, phosphate buffer pH 8; for Rate constant with Glutathione: Protein: Glutathione, cysteine position NA, in h-1
Summary of the method: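 First, 5 μM glutathione in degassed phosphate buffer (pH 8) receives immobilized TCEP beads (2% v/v). Then acrylamide is added and plates incubate 1 h at room temperature. Finally, fluorescence (380/470 nm) is normalized and fitted to first-order decay for rate constants.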

[2] = molecular target: T1, human cyclin-dependent kinase 2 (Cdk2) (Homo sapiens, UniProt P24941); test: Kinetic thiol consumption assay with wild type Cdk2 (C177); format: binding; design: key to Rate enhancement, Cdk2 WT: k(Cdk2) divided by k(model thiol); Rate constant with Cdk2 (k(Cdk2)): unit not given here; conditions: for Rate constant with Cdk2 (k(Cdk2)): 500 μM ligand, 5 μM thiol, phosphate buffer pH 8; for Rate enhancement, Cdk2 WT: no additional mutations; for Rate constant with Cdk2 WT: Protein: Cdk2, cysteine position WT, in h^-1; for k(Cdk2)/k(Cdk2_mut) rate enhancement: model thiol Cdk2[C177A, F80C, K278C]; for k(Cdk2)/k(GSH) rate enhancement: model thiol glutathione
T1 construct: poly-histidine; made in house; host or cells: E. coli
Summary of the method: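 His-tagged human Cdk2 (single surface cysteine C177), expressed in E. coli, or a model thiol at 5 μM in degassed phosphate buffer pH 8 was pre-treated with immobilized TCEP beads (2% v/v) before acrylamide addition. Fluorescence (ex/em 380/470 nm) was read after 1 h at room temperature, normalized to DMSO/thiol-only control and plotted versus time.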

Cdk2[C177A, F80C, K278C] = molecular target: T2, Cdk2[C177A, F80C, K278C] (Homo sapiens, UniProt P24941, C177A/F80C/K278C); test: Kinetic thiol consumption assay with mutant Cdk2 as model thiol; format: binding; design: unit not given here; conditions: 500 μM ligand, 5 μM thiol, phosphate buffer pH 8
T2 construct: poly-histidine; made in house; host or cells: E. coli
Summary of the method: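 Model thiol: His-tagged human Cdk2 C177A/F80C/K278C (two engineered surface cysteines), E. coli-expressed, 5 μM in degassed phosphate buffer pH 8 with immobilized TCEP beads (2% v/v). Fluorescence (ex/em 380/470 nm) followed over time at room temperature, normalized to DMSO/thiol control. First-order decay fit gives rate constants.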

Cdk2(C177A, F80C) = molecular target: T3, Cdk2(C177A, F80C) (Homo sapiens, UniProt P24941, C177A/F80C); test: Kinetic thiol consumption assay with Cdk2 mutant F80C, incl. kobs versus concentration (Kd, k2); format: binding; design: key to Rate enhancement, Cdk2 F80C: Cdk2 rate constant divided by model-thiol rate constant; conditions: additional mutation C177A; for Rate constant with Cdk2 F80C: Protein: Cdk2, cysteine position F80C, in h^-1
T3 construct: poly-histidine; made in house; host or cells: E. coli
Summary of the method: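 His-tagged Cdk2(C177A/F80C) from E. coli or model thiol, 5 μM in degassed phosphate buffer pH 8 with TCEP beads, reacted with acrylamide ligands; fluorescence (ex/em 380/470 nm) normalized to DMSO control and fitted to first-order decay for kobs. Kd and k2 obtained from hyperbolic fit of kobs versus ligand concentration.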

Cdk2(H71C) (C177A) = molecular target: T4, Cdk2(H71C) (C177A) (Homo sapiens, UniProt P24941, C177A/H71C); test: Kinetic thiol consumption assay with Cdk2 mutant H71C; format: binding; design: key to Rate enhancement, Cdk2 H71C: rate constant with Cdk2 ÷ rate constant with model thiol (fold); conditions: additional mutation C177A; for Rate constant with Cdk2 H71C: Protein: Cdk2, cysteine position H71C, in h^-1
T4 construct: poly-histidine; made in house; host or cells: E. coli
Summary of the method: (§1)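 5 μM thiol, degassed phosphate pH 8, 2% v/v immobilized TCEP beads; 1 h RT; fluorescence ex 380/em 470 nm; normalized vs DMSO/thiol-only; first-order exponential decay fit → rate constant; Cdk2 k / model-thiol k = rate enhancement per acrylamide.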

Cdk2(S276C) (C177A) = molecular target: T5, Cdk2(S276C) (C177A) (Homo sapiens, UniProt P24941, C177A/S276C); test: Kinetic thiol consumption assay with Cdk2 mutant S276C; format: binding; design: key to Rate enhancement, Cdk2 S276C: rate constant with Cdk2 ÷ rate constant with model thiol (fold); conditions: additional mutation C177A; for Rate constant with Cdk2 S276C: Protein: Cdk2, cysteine position S276C, in h^-1
T5 construct: poly-histidine; made in house; host or cells: E. coli
Summary of the method: as §1

Cdk2(N272C) (C177A) = molecular target: T6, Cdk2(N272C) (C177A) (Homo sapiens, UniProt P24941, C177A/N272C); test: Kinetic thiol consumption assay with Cdk2 mutant N272C; format: binding; design: key to Rate enhancement, Cdk2 N272: rate constant with Cdk2 ÷ rate constant with model thiol (fold); conditions: for Rate enhancement, Cdk2 N272: Cdk2 N272, additional mutation C177A; for Rate constant with Cdk2 N272C: Protein: Cdk2, cysteine position N272C, additional mutation C177A, in h^-1
T6 construct: poly-histidine; made in house; host or cells: E. coli
Summary of the method: as §1

Cdk2(T182C) (C177A) = molecular target: T7, Cdk2(T182C) (C177A) (Homo sapiens, UniProt P24941, C177A/T182C); test: Kinetic thiol consumption assay with Cdk2 mutant T182C; format: binding; design: key to Rate enhancement, Cdk2 T182C: rate constant with Cdk2 ÷ rate constant with model thiol (fold); conditions: additional mutation C177A; for Rate constant with Cdk2 T182C: Protein: Cdk2, cysteine position T182C, in h^-1
T7 construct: poly-histidine; made in house; host or cells: E. coli
Summary of the method: as §1

Cdk2(R122C) (C177A) = molecular target: T8, Cdk2(R122C) (C177A) (Homo sapiens, UniProt P24941, C177A/R122C); test: Kinetic thiol consumption assay with Cdk2 mutant R122C; format: binding; design: key to Rate enhancement, Cdk2 R122C: rate constant with Cdk2 ÷ rate constant with model thiol (fold); conditions: additional mutation C177A; for Rate constant with Cdk2 R122C: Protein: Cdk2, cysteine position R122C, in h-1
T8 construct: poly-histidine; made in house; host or cells: E. coli
Summary of the method: as §1

Cdk2(S181C) (C177A) = molecular target: T9, Cdk2(S181C) (C177A) (Homo sapiens, UniProt P24941, C177A/S181C); test: Kinetic thiol consumption assay with Cdk2 mutant S181C; format: binding; design: key to Rate enhancement, Cdk2 S181C: rate constant with Cdk2 ÷ rate constant with model thiol (fold); conditions: additional mutation C177A; for Rate constant with Cdk2 S181C: Protein: Cdk2, cysteine position S181C, in h^-1
T9 construct: poly-histidine; made in house; host or cells: E. coli
Summary of the method: as §1

Rate constant with Cdk2 (k(Cdk2)) [2] | Rate enhancement, Cdk2 WT [2] | Rate constant with Cdk2 WT [2] | k(Cdk2)/k(Cdk2_mut) rate enhancement [2] | k(Cdk2)/k(GSH) rate enhancement [2] | Rate constant with Cdk2[C177A, F80C, K278C] (k(Cdk2_mut)) (Cdk2[C177A, F80C, K278C]) | Rate enhancement, Cdk2 F80C (Cdk2(C177A, F80C)) | Rate enhancement, Cdk2 H71C (Cdk2(H71C) (C177A)) | Rate enhancement, Cdk2 S276C (Cdk2(S276C) (C177A)) | Rate constant with Cdk2 S276C (Cdk2(S276C) (C177A)) | Rate enhancement, Cdk2 N272 (Cdk2(N272C) (C177A)) | Rate constant with Cdk2 N272C (Cdk2(N272C) (C177A)) | Rate enhancement, Cdk2 T182C (Cdk2(T182C) (C177A)) | Rate constant with Cdk2 T182C (Cdk2(T182C) (C177A)) | Rate enhancement, Cdk2 R122C (Cdk2(R122C) (C177A)) | Rate constant with Cdk2 R122C (Cdk2(R122C) (C177A)) | Rate enhancement, Cdk2 S181C (Cdk2(S181C) (C177A)) | Rate constant with Cdk2 S181C (Cdk2(S181C) (C177A)) | SMILES | Rate constant with glutathione (k(GSH)) [1] | Rate constant with Glutathione [1] | further results
0.00343 | 0.2104 | 0.003432 | 1.377 | 0.3593 | 0.00249 | 0.1163 | 0.07112 | 0.7069 | 0.01153 | 0.09295 | 0.001516 | 0.595 | 0.009705 | 0.2397 | 0.00391 | 0.1987 | 0.00324 | C=CC(=O)N1CCC2(CC1)NC(=O)N(C)C2=O [CA-046] | 0.00955 | 0.01631 | Rate constant with Cdk2 F80C (Cdk2(C177A, F80C)): 0.001897; Rate constant with Cdk2 H71C (Cdk2(H71C) (C177A)): 0.00116
0.0056 | 0.4553 | 0.0056 | 1.617 | 0.7407 | 0.00346 | 0.1307 | 0 | 0.5464 | 0.006721 | 0.1665 | 0.002048 | 1.063 | 0.01308 | 0.2628 | 0.003233 | 0.2766 | 0.003402 | C=CC(=O)NC1(C2CC2)CC1 [CA-047] | 0.00756 | 0.0123 | Rate constant with Cdk2 F80C (Cdk2(C177A, F80C)): 0.001607
0.01116 | 0.7118 | 0.01346 | 1.41 | 0.8182 | 0.00791 | 0.8022 | 0.2331 | 0.779 | 0.01473 | 0.5442 | 0.01029 | 2.645 | 0.05001 | 0.2023 | 0.003826 | 0.6029 | 0.0114 | C=CC(=O)N(C)C1CC(OCC)C12CCC2 (stereo not drawn) [CA-048] | 0.01364 | 0.01891 | Rate constant with Cdk2 F80C (Cdk2(C177A, F80C)): 0.01517; Rate constant with Cdk2 H71C (Cdk2(H71C) (C177A)): 0.004408

Continued, molecule first:

SMILES | Rate constant with Cdk2 (k(Cdk2)) [2] | Rate enhancement, Cdk2 WT [2] | Rate constant with Cdk2 WT [2] | k(Cdk2)/k(Cdk2_mut) rate enhancement [2] | k(Cdk2)/k(GSH) rate enhancement [2] | Rate constant with Cdk2[C177A, F80C, K278C] (k(Cdk2_mut)) (Cdk2[C177A, F80C, K278C]) | Rate enhancement, Cdk2 F80C (Cdk2(C177A, F80C)) | Rate enhancement, Cdk2 H71C (Cdk2(H71C) (C177A)) | Rate enhancement, Cdk2 S276C (Cdk2(S276C) (C177A)) | Rate constant with Cdk2 S276C (Cdk2(S276C) (C177A)) | Rate enhancement, Cdk2 N272 (Cdk2(N272C) (C177A)) | Rate constant with Cdk2 N272C (Cdk2(N272C) (C177A)) | Rate enhancement, Cdk2 T182C (Cdk2(T182C) (C177A)) | Rate constant with Cdk2 T182C (Cdk2(T182C) (C177A)) | Rate enhancement, Cdk2 R122C (Cdk2(R122C) (C177A)) | Rate constant with Cdk2 R122C (Cdk2(R122C) (C177A)) | Rate enhancement, Cdk2 S181C (Cdk2(S181C) (C177A)) | Rate constant with Cdk2 S181C (Cdk2(S181C) (C177A)) | Rate constant with glutathione (k(GSH)) [1] | Rate constant with Glutathione [1] | further results
C=CC(=O)N1CCC2(CC1)CC2C(=O)OC (stereo not drawn) [CA-039] | 0.00187 | 0.2802 | 0.0005702 | 0.6155 | 1.327 | 0.00304 | 0 | 0 | 1.14 | 0.002319 | 0.7499 | 0.001526 | 1.425 | 0.0029 | 0.8889 | 0.001809 | 0.6334 | 0.001289 | 0.00141 | 0.002035 | –
C=CC(=O)Nc1[nH]nc(C2CC2)c1-c1ccc2c(c1)OCO2 [CA-041] | 1.146 | 2.081 | 1.146 | 0.5929 | 2.106 | 1.933 | 0 | 0.007207 | 0.0064 | 0.003524 | 0.008585 | 0.004727 | 0.8554 | 0.471 | 0.003956 | 0.002178 | 0.005756 | 0.003169 | 0.5441 | 0.5506 | Rate constant with Cdk2 H71C (Cdk2(H71C) (C177A)): 0.003968
C=CC(=O)N1CCc2cc(-c3cccc(F)c3)ccc21 [CA-042] | 0.04257 | 2.91 | 0.04257 | 0.3151 | 5.157 | 0.1351 | 0.4287 | 0.5064 | 0.5636 | 0.008245 | 0.09535 | 0.001395 | 5.547 | 0.08115 | 0.1215 | 0.001778 | 0.3187 | 0.004663 | 0.00825 | 0.01463 | Rate constant with Cdk2 F80C (Cdk2(C177A, F80C)): 0.006272; Rate constant with Cdk2 H71C (Cdk2(H71C) (C177A)): 0.007409
C=CC(=O)NC1(c2noc(C3CC3)n2)CCCC1 [CA-044] | 0.00269 | 0.3307 | 0.002694 | 1.749 | 0.4838 | 0.00154 | 0 | 0 | 0.1116 | 0.0009087 | 0 | – | 0.2903 | 0.002365 | 0.2302 | 0.001875 | 0.1134 | 0.0009239 | 0.00557 | 0.008146 | –
